Test results as given in patent US20240374631A1, “A COMPOSITION FOR IMPROVING GUT MICROBIOTA, BEHAVIOURAL PATTERN, ALPHA-SYNUCLEIN LEVELS, SLEEP PATTERN AND/OR SERUM MELATONIN” (GN Corporation Co Ltd, priority 2021, published 2024).

System: gut microbiota
Assay: Gut microbiome analysis (16S rRNA sequencing of fecal samples) in STAM model of NASH
Assay type: in vivo, C57BL/6J mice
Excerpt: The study is reported in accordance with Animal Research: Reporting of In Vivo Experiments (ARRIVE) guidelines. C57BL/6J mice were obtained from Japan SLC, Inc. (Japan). All animals used in this study were cared for under the following guidelines: Act on Welfare and Management of Animals (Ministry of the Environment, Japan, Act No. 105 of Oct. 1, 1973), standards relating to the care and management of laboratory animals and relief of pain (Notice No. 88 of the Ministry of the Environment, Japan, Apr. 28, 2006) and the guidelines for proper conduct of animal experiments (Science Council of Japan, Jun. 1, 2006). Protocol approvals were obtained from SMC Laboratories, Japan's IACUC (Study reference no: […] Mice were maintained in a specific pathogen-free (SPF) facility under controlled conditions of temperature (23±3° C.), humidity (50±20%), lighting (12-hour artificial light and dark cycles; light from 8:00 to 20:00) and air exchange. The STAM model of NASH was induced as previously described [D10]. Mice were given a single subcutaneous injection of 200 μg streptozotocin (STZ, Sigma-Aldrich, USA) solution 2 days after birth and fed with a high-fat diet (HFD, 57 kcal % fat, Cat #HFD32, CLEA Japan, Inc., Japan) from 4-9 weeks of age. All mice develop liver steatosis and diabetes and at […] mice had established steatohepatitis, histologically. Studygroups: There were five study groups, described below. Eight mice were included in each study group. Eight NASH mice were orally administered vehicle supplemented with AFO-202 Beta Glucan at a dose of 1 mg/kg in a volume of 5 mL/kg once daily from 6 to 9 weeks of age. Eight NASH mice were orally administered vehicle supplemented with Telmisartan at a dose of 10 mg/kg once daily from 6 to 9 weeks of age. Frequency: Fecal samples were collected at the 6 weeks of age (before administration) and 9 weeks of age (before sacrifice). Procedure: At 6 weeks of age, fecal samples were collected from each mouse by clean catch method. […] A sterile petri dish was placed on the bench. Gently massage the abdomen, position the bottom of mouse over a fresh petri dish, and collect 1-2 fecal pellets. At sacrifice, fecal samples were aseptically collected from cecum. The tubes with feces were placed on ice immediately. These tubes were snap frozen in liquid nitrogen and stored at -80° C. for shipping. In this analysis, the 16S rRNA sequence data acquired by the next-generation sequencer from the fecal […] was used to perform community analysis using the QIIME2 program for microbial community analysis. The raw read data in FASTQ format output from the next-generation sequencer was trimmed to remove adapter sequences and low QV regions that may be included in the data. Cutadapt was used to remove adapter sequences from DNA sequencing reads. Trimmomatic was used as read trimming tool for Illumina NGS data. The adapter sequence was trimmed using the adapter trimming program “cutadapt” if the Trimming of the region at the end of the read sequence overlapped the corresponding sequence by at least one base (mismatch tolerance: 20%). When reads containing N were present in at least one of Read1 and Read2, both Read1 and Read2 were removed. Trimming of low QV regions was performed on the read data after processing using the QV trimming program “Trimmomatic” under the following conditions. The window of 20 bases is slid from the 5' side, and the area where the average QV is less than 20 is trimmed. After trimming, only the reads with more than 50 bases remaining in both Read1 and Read2 were taken as output. The microbial community analysis based on 16S rRNA sequence was performed on the sequence data trimmed in the previous section using the microbial community analysis program “QIIME2”. The annotation program “sklearn” included in QIIME2 is used to annotate the ASV (OTU) sequences. […]

SMILES: CCCc1nc2c(C)cc(-c3nc4ccccc4n3C)cc2n1Cc1ccc(-c2ccccc2C(=O)O)cc1 [Telmisartan]
- Abundance: Family Erysipelotrichaceae, Genus —, Species — (post-intervention, table row r426): 0
- Abundance: Family Deferribacteraceae, Genus Mucispirillum, Species schaedleri (post-intervention, table row r427): 0
- Abundance: Family Methylobacteriaceae, Genus Methylobacterium, Species Other (post-intervention, table row r428): 0
- Abundance: Family Methanobacteriaceae, Genus Methanobrevibacter, Species — (post-intervention, table row r429): 0
- Abundance: Family Lachnospiraceae, Genus Other, Species Other (post-intervention, table row r431): 0
- Abundance: Family Lachnospiraceae, Genus Dorea, Species — (post-intervention, table row r432): 0
- Abundance: Family Lachnospiraceae, Genus Dorea, Species — (post-intervention, table row r433): 0
- Abundance: Family Lachnospiraceae, Genus —, Species — (post-intervention, table row r434): 0
- Abundance: Family Erysipelotrichaceae, Genus —, Species — (post-intervention, table row r435): 0
- Abundance: Family Other, Genus Other, Species Other (post-intervention, table row r437): 0
- Abundance: Family Ruminococcaceae, Genus Ruminococcus, Species — (post-intervention, table row r438): 11
- Abundance: Family Lachnospiraceae, Genus Other, Species Other (post-intervention, table row r439): 0
- Abundance: Family Erysipelotrichaceae, Genus Clostridum, Species cocleatum (post-intervention, table row r440): 0
- Abundance: Family Clostridiaceae, Genus —, Species — (post-intervention, table row r441): 0
- Abundance: Family S24-7, Genus —, Species — (post-intervention, table row r442): 0
- Abundance: Family Ruminococcaceae, Genus Oscillospira, Species — (post-intervention, table row r443): 10
- Abundance: Family Erysipelotrichaceae, Genus —, Species — (post-intervention, table row r446): 9
- Abundance: Family Streptococcaceae, Genus —, Species — (post-intervention, table row r447): 0
- Abundance: Family Erysipelotrichaceae, Genus —, Species — (post-intervention, table row r448): 0
- Abundance: Family Turicibacteraceae, Genus Turicibacter, Species — (post-intervention, table row r449): 0
- Abundance: Family S24-7, Genus —, Species — (post-intervention, table row r450): 0
- Abundance: Family Ruminococcaceae, Genus Oscillospira, Species — (post-intervention, table row r451): 0
- Abundance: Family Lachnospiraceae, Genus —, Species — (post-intervention, table row r452): 0
- Abundance: Family Erysipelotrichaceae, Genus —, Species — (post-intervention, table row r454): 0
- Abundance: Family Ruminococcaceae, Genus Ruminococcus, Species — (post-intervention, table row r455): 7
- Abundance: Family Moraxellaceae, Genus Psychrobacter, Species Other (post-intervention, table row r456): 0
- Abundance: Family Paenibacillaceae, Genus Other, Species Other (post-intervention, table row r457): 0
- Abundance: Family Lachnospiraceae, Genus Coprococcus, Species — (post-intervention, table row r458): 0
- Abundance: Family Bacillaceae, Genus Bacillus, Species — (post-intervention, table row r459): 0
- Abundance: Family Enterococcaceae, Genus Vagococcus, Species — (post-intervention, table row r460): 0
- Abundance: Family Lachnospiraceae, Genus —, Species — (post-intervention, table row r462): 0
- Abundance: Family Ruminococcaceae, Genus Oscillospira, Species — (post-intervention, table row r466): 0
- Abundance: Family Erysipelotrichaceae, Genus —, Species — (post-intervention, table row r468): 0
- Abundance: Family Other, Genus Other, Species Other (post-intervention, table row r469): 4
- Abundance: Family Clostridiaceae, Genus Clostridium, Species Other (post-intervention, table row r470): 0
- Abundance: Family Ruminococcaceae, Genus —, Species — (post-intervention, table row r473): 0
- Abundance: Family Deferribacteraceae, Genus Mucispirillum, Species schaedleri (post-intervention, table row r474): 0
- Abundance: Family Turicibacteraceae, Genus Turicibacter, Species — (post-intervention, table row r475): 0
- Abundance: Family [Mogibacteriaceae], Genus —, Species — (post-intervention, table row r478): 0
- Abundance: Family Lachnospiraceae, Genus Dorea, Species longicateria (post-intervention, table row r480): 0
- Abundance: Family Ruminococcaceae, Genus —, Species — (post-intervention, table row r481): 0
- Abundance: Family Lachnospiraceae, Genus —, Species — (post-intervention, table row r482): 0
- Abundance Erysipelotrichaceae/Allobaculum/— (post, line r8): 622
- Abundance Turicibacteraceae/Turicibacter/— (post, line r9): 786
- Abundance Desulfovibrionaceae/—/— (post, line r10): 6012
- Abundance Clostridiaceae/Other/Other (post, line r11): 723
- Abundance Lactobacillaceae/Lactobacillus/— (post, line r12): 254
- Abundance Streptococcaceae/Lactococeus/— (post, line r13): 1948
- Abundance Bacteroidaceae/Bacteroides/— (post, line r14): 8412
- Abundance [Paraprevotellaceae]/[Prevotella]/— (post, line r15): 7582
- Abundance —/—/— (post, line r16): 6029
- Abundance Deferribacteraceae/Mucispirillum/schaedleri (post, line r17): 1921
- Abundance Bacteroidaceae/Bacteroides/acidifaciens (post, line r18): 2571
- Abundance —/—/— (post, line r19): 2764
- Abundance Verrucomicrobiaceae/Akkermansia/muciniphila (post, line r20): 320
- Abundance Enterobacteriaceae/Other/Other (post, line r22): 40
- Abundance Lactobacillaceae/Lactobacillus/— (post, line r23): 513
- Abundance S24-7/—/— (post, line r24): 411
- Abundance Lachnospiraceae/—/— (post, line r25): 1545
- Abundance Peptostreptocpccaceae/—/— (post, line r26): 181
- Abundance Lachnospiraceae/[Ruminococcus]/gnavus (post, line r27): 898
- Abundance Lachnospiraceae/Coprococeus/— (post, line r28): 1468
- Abundance Bifidobacteriaceae/Bifidobacterium/pseudolongum (post, line r29): 111
- Abundance Enterobacteriaceae/Proteus/— (post, line r30): 1153
- Abundance Lactobacillaceae/Lactobacillus/Other (post, line r31): 111
- Abundance S24-7/—/— (post, line r32): 329
- Abundance Porphyromonadaceae/Parabacteroides/distasonis (post, line r33): 1437
- Abundance Clostridiaceae/—/— (post, line r34): 79
- Abundance —/—/— (post, line r35): 536
- Abundance Desulfovibrionaceae/Desulfovibrio/— (post, line r36): 503
- Abundance S24-7/—/— (post, line r37): 271
- Abundance Coriobacteriaceae/Adlercreutzia/— (post, line r38): 135
- Abundance S24-7/—/— (post, line r39): 527
- Abundance Erysipelotrichaceae/Clostridium/cocleatum (post, line r40): 696
- Abundance Ruminococcaceae/Ruminococcus/— (post, line r41): 266
- Abundance Lachnospiraceae/Other/Other (post, line r43): 436
- Abundance Lachnospiraceae/[Ruminococcus]/gnavus (post, line r44): 87
- Abundance Turicibacteraceae/Turicibacter/— (post, line r45): 0
- Abundance Lachnospiraceae/—/— (post, line r46): 253
- Abundance Bacteroidaceae/Bacteroides/— (post, line r47): 2042
- Abundance Ruminococcaceae/Oscillospira/— (post, line r48): 621
- Abundance Clostridiaceae/Other/Other (post, line r49): 70
- Abundance Lachnospiraceae/Roseburia/— (post, line r50): 927
- Abundance Lachnospiraceae/—/— (post, line r51): 698
- Abundance S24-7/—/— (post, line r52): 104
- Abundance Lachnospiraceae/[Ruminococcus]/gnavus (post, line r53): 126
- Abundance Lachnospiraceae/Coprococcus/— (post, line r56): 562
- Abundance S24-7/—/— (post, line r57): 144
- Abundance S24-7/—/— (post, line r58): 410
- Abundance Lachnospiraceae/Other/Other (post, line r60): 245
- Abundance Lachnospiraceae/[Ruminococcus]/gnavus (post, line r61): 686
- Abundance Erysipelotrichaceae/Allobaculum/— (post, line r62): 0
- Abundance Desulfovibrionaceae/Desulfovibrio/C21_c20 (post, line r63): 43
- Abundance S24-7/—/— (post, line r64): 152
- Abundance Streptococcaceae/Lactococcus/garvieae (post, line r66): 8
- Abundance Enterobacteriaceae/Proteus/— (post, line r68): 386
- Abundance Lachnospiraceae/—/— (post, line r69): 786
- Abundance S24-7/—/— (post, line r70): 74
- Abundance Lachnospiraceae/[Ruminococcus]/gnavus (post, line r71): 331
- Abundance Clostridiaceae/Clostridium/Other (post, line r73): 0
- Abundance Lachnospiraceae/—/— (post, line r74): 15
- Abundance Clostridiaceae/Other/Other (post, line r75): 49
- Abundance S24-7/—/— (post, line r78): 101
